Experimental data reported in patent US20110059869A1, “Method for Increasing Enzymatic Reactivity” (RIKEN, priority 2008, published 2011).

Assays:
[1] = system: enzyme reaction solution in a Genome Analyzer system; assay: Sequencing reaction in a Solexa sequencing system (Genome Analyzer), PhiX control; type: biochemical; details: trehalose 0.15 M, 0.3 M
Protocol: D(+)-trehalose was added to the enzyme reaction solution in a Genome Analyzer system (GAI) and the results were measured. The experiment was conducted with the three D(+)-trehalose final concentrations of 0.15 M, 0.3 M, and 0.51 M. The ratio of the reduction in the average value obtained by dividing the fluorescence intensity calculated for each cycle by the number of clusters was employed for comparison.
The D(+)-trehalose employed was D(+)-trehalose (90208 BioChemika, ≧99.5% (HPLC) (Fluka). A 36-cycle Illumina Sequencing Kit (FC-204-2036) was employed for sequencing with a Genome Analyzer (Illumina). The sample employed was PhiX control (CT-901-1001).
The IMX36 (42 mL) in box 2 of the SBS Kit contained in the 36-Cycle SBS Reagent Kit v2 (IIlumina catalog #FC-204-2036) was melted, after which D(+)-trehalose was added in the quantities indicated in Table 3.
Following the addition, the mixture was shielded from light and gently mixed with top to bottom inversion for 10 minutes at room temperature. Once the dissolution had been visually confirmed, the mixture was passed through a filter (with a filter pore system of 0.22 micrometers). Precisely the required 42 mL was collected from the mixed solution following filtration. Subsequently, the operations specified in the manufacturer's protocol were conducted.

λ phage cDNA library = assay: Preparation of a λ phage cDNA library, titer from plaques; details: samples prepared under trehalose (+) 0.6 M vs trehalose (−)
Protocol: Double-stranded cDNA/RNA hybrid samples that had been immobilized on streptoavidin beads and synthesized under trehalose (+) and trehalose (−) conditions were employed to prepare a λ phage cDNA library. Following synthesis of double-stranded cDNA, the beads were washed with blunting buffer (T4 DNA polymerase buffer). Blunting reaction solution (1× T4 DNA polymerase buffer, 0.6 M trehalose, 0.1 mM dNTP mix, T4 DNA polymerase 5 units) was added and the mixture was incubated for 20 minutes at 12° C. Following the reaction, the beads were washed three times with 0.1× TE, and then washed one more time with 1× ligation buffer. Ligation reaction solution (1× T4 DNA ligation buffer, 0.6 M trehalose, 5′ end BamHI overhang adapter 2 ug, T4 DNA ligase 800 units) was added and the mixture was reacted overnight at 16° C. The beads were washed three times with 0.1× TE and then washed once with 1× XhoI. Restriction enzyme XhoI reaction solution (1× XhoI buffer, 0.6 M trehalose, XhoI 40 units) was added and the mixture was incubated for three hours at 37° C. The beads were recovered with a magnetic stand and the supernatant containing the cDNA that had been released by XhoI cutting was separated. […] A 10 uL quantity and a 100 uL quantity were admixed to the C600/MgSO4 suspensions to infect them with phage. […] The plaques that appeared were counted and the titer was calculated (Scheme 3).

restriction enzyme PstI = assay: PstI cleavage reaction in solution (DNA fragment III); type: biochemical; details: normal reaction solution, with vs without 0.6 M trehalose; three hours
Protocol: Biotin-labeled DNA fragment III (Seq. ID No. 6, Scheme 4) was cleaved at the restriction enzyme PstI site in solution and the 104 by DNA fragment that was released was examined. Two forms of reaction solution (DNA fragment III 500 ng, 1× PSTI buffer, 1× BSA, restriction enzyme 40 units) were prepared: a total of 50 uL trehalose (+) reaction solution to which D(+)-trehalose was added to a final concentration of 0.6 M, and a total of 50 uL trehalose (−) reaction solution, to which no trehalose was added. The reaction solutions were reacted for 3 hours at 37° C., a proteinase K reaction was conducted, phenol chloroform treatment was carried out, and precipitation from ethanol was conducted. The precipitate of the DNA fragment obtained was dissolved in 1× TE (pH 7.5) and analyzed with Bioanalyzer DNA 1000 assay (Agilent Technologies).

[2] = system: E. coli DNA ligase, E. coli DNA polymerase I, E. coli RNaseH; assay: Double-stranded cDNA synthesis (Gubler-Hoffman method) on cDNA/RNA hybrid adsorbed to streptavidin beads; type: biochemical; details: 0.6 M trehalose, 3 hours at 16° C.
Protocol: RNA was reverse transcribed with Unique oligo-dT having various restriction enzyme sites. The cDNA/RNA hybrids obtained were used while still adsorbed to the beads to conduct a double-strand synthesis reaction by the Gubler-Hoffman method as set forth below.
A 15 ug quantity of 5′ end biotin-labeled primer (Seq. ID No. 3) for reverse transcription was employed for 12 ug of total RNA (mouse embryo, 17.5, female). Reverse transcription reaction solution (1× GC buffer (Takara), 0.3 mM dNTP mix, saturated sorbitol/trehalose solution 30 uL, M-MLV 3,000 units) was added α[32P]dGTP was added, and the mixture was reacted for 30 minutes at 42° C., 10 minutes at 50° C., and 10 minutes at 56° C. Following reaction with proteinase K, the mixture was precipitated from CTAB/urea and redissolved in 7 M Gu-HCl. EtOH precipitation was then conducted. […]
Streptavidin beads on which was adsorbed cDNA/RNA hybrid were washed once with double-stranded synthesis-use reaction buffer ([…], Invitrogen). […] The mixture was washed three times with 1× binding buffer and measured with a liquid scintillation counter. The synthesis rate of double-stranded cDNA and the yield were calculated (Scheme 1).

OC[C@H]1O[C@H](O[C@H]2O[C@H](CO)[C@@H](O)[C@H](O)[C@H]2O)[C@H](O)[C@@H](O)[C@@H]1O [trehalose, D(+)-trehalose]
difference in rate of reduction in fluorescence intensity, trehalose (+) vs trehalose (−) ([1]; 35th cycle, 0.51 M, PhiX control): ≥ 20%
PhiX control mapping rate ([1]; 0.51 M relative to trehalose (−)): overall significant difference
titer of the phage library (λ phage cDNA library): clearly better results
yield of released DNA fragment (restriction enzyme PstI): the same yield
double-stranded cDNA synthesis rate, increase over trehalose (−) conditions [2]: 1.25 fold
